Test results taken from patent US10329302B2, “Bicyclic-fused heteroaryl or aryl compounds” (Pfizer Inc., priority 2014, dated 2019).

Legend:
[1] = tested on: Female Lewis rats; assay: In Vivo Rat Collagen-Induced Arthritis Model; details: for days on which hind paw swelling was significantly reduced (t-test, p<0.05 vs. vehicle): CIA Lewis rats, paw volume by plethysmograph
Method: In Vivo Rat Collagen-Induced Arthritis Model.
Efficacy of IRAK4 compounds of the present invention was also evaluated in a rat in vivo model of rheumatoid arthritis (M. Hegen, J. C. Keith, Jr, M. Collins, C. L. Nickerson-Nutter, Ann. Rheum. Dis. 2008, 67, 1505-1515). An exemplary protocol for this in vivo model follows.
Female Lewis rats, approximately 7 weeks old, were immunized with an emulsion of type II collagen (CII) and incomplete Freund's adjuvant (IFA) on day 0 and received a boost of CII/IFA on day 7. Hind paw volume increase was taken by plethysmograph. Animals were randomly enrolled into treatment groups based on the development of disease. Beginning on day 11 post immunization, rats were enrolled into random treatment groups based on an increase in a single hind paw volume compared to day 7 post immunization baseline measurements.
Ten rats were enrolled per treatment group with the exception of the naive control group, which contained two rats. Day 0 was designated as the first treatment day, and paw measurements are taken daily by plethysmograph. The rats were weighed on a daily basis.
IRAK4 inhibitors are efficacious in the Lewis rat model of collagen-induced arthritis.

[2] = tested on: serum TNF; assay: In Vivo Mouse LPS/D-Gal Challenge Model; details: oral
Method: In Vivo Mouse LPS/D-Gal Challenge Model.
Efficacy of IRAK4 compounds of the present invention was also evaluated in an in vivo mouse model of endotoxin induced (Lipopolysaccharide (LPS)) inflammation. See: S. Copeland, H. W. Warren, S. F. Lowry, S. E. Calvano, and D. Remick, Clin. Diagn. Lab. Immnol. 2005, 12(1), 60-67. An exemplary protocol for this in vivo model follows.
Female C57/BL6 mice, 8 to 10 weeks old, are orally administered either vehicle or formulated IRAK-4 compound 1 hour prior to the challenge. Vehicle or IRAK4 compound is administered by oral gavage at a volume of 10 mL/kg. One hour post oral delivery of vehicle or compound, the animals are challenged with an intraperitoneal injection (IP) of a solution containing 1 μg/mL LPS and 80 mg/mL D-gal. Each mouse is injected with […] of the solution, for a final challenge dose of 100 ng LPS and 8 mg D-gal. Ninety minutes post LPS/D-gal challenge, animals are euthanized and blood collected. Blood is allowed to clot at room temperature and serum is separated by centrifugation and stored at −80° C. for analysis. Serum TNF and IL-6 are measured by Meso Scale Discovery (MSD) multiplex platform.
The groups consisted of N=10 animals/group. Naïve animals and vehicle control groups were run with each study. Mean cytokine data was plotted and students T-test was performed to calculate significance (t-test, p<0.05 vs. vehicle) of IRAK4 treated group vs. vehicle treated group. Percent inhibition of cytokine induction was calculated for IRAK4 treated group vs. vehicle treated group.
Table 4 contains data from multiple studies with columns for Compound, Dose in mg/kg (mpk) and % inhibition of serum TNF. In cases where doses of certain compounds were repeated in multiple experiments, the average percent inhibition of TNF and standard deviation is shown in the table.

Compound	days on which hind paw swelling was significantly reduced (t-test, p<0.05 vs. vehicle) ([1]; 30 mg/kg PO, QD, positive control (p38 inhibitor))	hind paw swelling in CIA rats ([1]; 10 mg/kg PO, BID)	days on which hind paw swelling was significantly reduced (t-test, p<0.05 vs. vehicle) ([1]; 30 mg/kg PO, BID, therapeutic treatment for 8 days)	days on which hind paw swelling was significantly reduced (t-test, p<0.05 vs. vehicle) ([1]; 100 mg/kg PO, BID, therapeutic treatment for 8 days)	hind paw swelling in CIA rats ([1]; therapeutic treatment BID daily for 8 days, t-test p<0.05 vs. vehicle)	% inhib TNF ([2]; Dose 10 mpk)	% inhib TNF ([2]; Dose 30 mpk)	% inhib TNF ([2]; Dose 100 mpk)
Cc1ccc(-n2nc(C(C)(C)C)cc2NC(=O)Nc2ccc(OCCN3CCOCC3)c3ccccc23)cc1 [BIRB796]	Day 1-Day 8	–	–	–	–	–	–	–
CC(C)Oc1cc2c(OC[C@@H]3CCC(=O)N3)nccc2cc1C(N)=O [Example 26, 1-{[(2S)-5-oxopyrrolidin-2-yl]methoxy}-7-(propan-2-yloxy)isoquinoline-6-carboxamide]	–	transiently significant reduction in hind paw swelling only on Day 5 and Day 6 post treatment	Day 2-Day 8	Day 1-Day 8 (end)	reduced the hind paw swelling in CIA rats significantly	27 (±19) %	41 (±17) %	78 (±23) %
